# Source: patent US20060074243A1, “Hydroxamic acid and amide compounds and their use as protease inhibitors” (Pharmacia Corporation, priority 2002, published 2006)
# Columns and labels:
# Test in all cases: In vitro MMP inhibition analysis (fluorogenic peptide substrate cleavage), Ki
# Assay type in all cases: biochemical
# Conditions in all cases: Table 2
# Human recombinant MMP-14 = target: T1, Human recombinant MMP-14 (Homo sapiens, UniProt P50281)
# T1 construct: The catalytic domain enzyme was expressed in E. coli inclusion bodies, solubilized in urea; made in house
# Method: (§1) Several compounds and salts were analyzed in an in vitro assay to determine their ability to inhibit the MMP cleavage of peptide substrates. Inhibition constant (Ki) were calculated from the assayed compound-MMP interactions.
# (§2) Human recombinant MMP-1, MMP-2, MMP-9, MMP-13, and MMP-14 were used in this assay. All enzymes were prepared in Assignee's laboratories following usual laboratory procedures. Protocols for the preparation and use of these enzymes are available in the scientific literature. See, e.g., Enzyme Nomenclature (Academic Press, San Diego, Calif., 1992) (and the citations therein). See also, Frije et al., J. Biol. Chem., 26(24), 16766-73 (1994).
# The MMP-14 full length cDNA was provided by Dr. Gregory Goldberg of Washington University (St. Louis, Mo.). The catalytic domain enzyme was expressed in E. coli inclusion bodies, solubilized in urea, purified on a preparative […] reverse phase HPLC column, and then refolded in the presence of zinc acetate and purified for use.
# (§3) All MMPs were activated using 4-aminophenylmercuric acetate (“APMA”, Sigma Chemical, St. Louis, Mo.) or trypsin. MMP-9 also was activated using human recombinant MMP-3 (purified in Assignee's laboratory following standard cloning and purification techniques).
# (§4) The following fluorogenic, methoxycoumarin-containing polypeptide substrate (I) was used in the MMP inhibition assays: MCA-ArgProLeuGlyLeuDpaAlaArgGluArgNH2 (I) “MCA” is 7-methoxycoumarin-4-yl acetyl. Substrate (I) was prepared Assignee's laboratory. In the absence of MMP inhibitory activity, the substrate is cleaved at the Gly-Leu peptide bond. This cleavage separates the highly fluorogenic peptide from the 2,4-dinitrophenyl quencher, thus resulting in increase of fluorescent intensity.
# (§5) The stock solutions of the assayed compounds and salts were prepared in […] (DMSO). These stock solutions were diluted in Buffer A (100 mM Tris-HCl, 100 mM NaCl, 10 mM CaCl2, 0.05% polyoxyethylene 23 lauryl ether, pH 7.5) to obtain solutions with different compound concentrations, i.e., assay solutions with different concentrations of the assayed […] compound. The experiment controls contained the same amount of Buffer A/DMSO as the assayed sample, but contained none of the tested compound or salt.
# (§6) The assays from which the Ki determinations were made were performed as follows. The assayed compound samples were incubated in separate wells of untreated white polystyrene plates (Nunc Nalgene International, Rochester, N.Y.), and analyzed on a Tecan SpectraFlour Plus plate reader. The excitation wavelength was 330 nm, and the emission wavelength—420 nm. All samples (assayed compounds and controls) were incubated in separate plate wells at room temperature for 1 hr in the presence of 4 μM of MMP substrate (I). In the absence of MMP inhibitory activity, substrate (I) was cleaved at the Gly-Leu bond resulting in an increase of relative fluorescence. Inhibition was observed as a reduced rate of this increase in relative fluorescence. […] This protocol is a modification of method by Knight et al., FEBS Lett., 296(3), 263-266 (1992). Apparent inhibitory constants were determined by non-linear regression of reaction velocity as a function of inhibitor and enzyme concentration using Morrison's equation, as described by Kuzmic, Anal. Biochem. 286, 45-50 (2000). Modifications were made in the non-linear regression method to allow a common control reaction rate and effective enzyme concentration to be shared between all dose-response relationships on a given assay plate. Since the substrate concentration was chosen to be at or below the Km, the apparent Ki's from this analysis were reported as Ki's without correction for the influence of substrate.
# (§7) The above protocols were used to determine Ki constants for the compounds in Examples 2-35 above. All Ki values in Table 1 are given in nM units.
# Human recombinant MMP-9 = target: T2, Human recombinant MMP-9 (Homo sapiens, UniProt P14780)
# T2 construct: made in house; host or cells: MMP-9-transfected HT1080 cells (spent media)
# T2 sequence (P14780 107-707 limits assumed): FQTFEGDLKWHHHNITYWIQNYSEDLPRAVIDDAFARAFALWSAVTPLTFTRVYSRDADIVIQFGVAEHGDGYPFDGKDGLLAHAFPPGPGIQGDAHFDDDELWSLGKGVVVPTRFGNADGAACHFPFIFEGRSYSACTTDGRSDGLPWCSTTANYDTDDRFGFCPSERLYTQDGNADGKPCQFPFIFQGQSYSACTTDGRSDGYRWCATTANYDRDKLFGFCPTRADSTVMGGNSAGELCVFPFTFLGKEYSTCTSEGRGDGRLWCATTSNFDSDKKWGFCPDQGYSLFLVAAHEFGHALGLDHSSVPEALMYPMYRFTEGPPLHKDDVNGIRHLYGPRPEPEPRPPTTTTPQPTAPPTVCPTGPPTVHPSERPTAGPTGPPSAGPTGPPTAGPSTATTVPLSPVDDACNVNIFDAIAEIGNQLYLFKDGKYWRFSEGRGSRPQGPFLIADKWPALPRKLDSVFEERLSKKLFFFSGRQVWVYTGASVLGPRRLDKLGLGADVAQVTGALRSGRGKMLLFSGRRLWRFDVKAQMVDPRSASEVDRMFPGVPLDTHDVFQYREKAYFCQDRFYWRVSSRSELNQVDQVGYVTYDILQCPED
# Method: as §1, §2
# The MMP-9 proenzyme was purified by gelatin Sepharose chromatography from spent media of MMP-9-transfected HT1080 cells provided by Dr. Howard Welgus of Washington University (St. Louis, Mo.).
# as §3, §4, §5, §6, §7
# Human recombinant MMP-1 = target: T3, Human recombinant MMP-1 (Homo sapiens, UniProt P03956)
# T3 construct: made in house; host or cells: MMP-1-transfected HT-1080 cells (spent media)
# T3 sequence (P03956 100-469): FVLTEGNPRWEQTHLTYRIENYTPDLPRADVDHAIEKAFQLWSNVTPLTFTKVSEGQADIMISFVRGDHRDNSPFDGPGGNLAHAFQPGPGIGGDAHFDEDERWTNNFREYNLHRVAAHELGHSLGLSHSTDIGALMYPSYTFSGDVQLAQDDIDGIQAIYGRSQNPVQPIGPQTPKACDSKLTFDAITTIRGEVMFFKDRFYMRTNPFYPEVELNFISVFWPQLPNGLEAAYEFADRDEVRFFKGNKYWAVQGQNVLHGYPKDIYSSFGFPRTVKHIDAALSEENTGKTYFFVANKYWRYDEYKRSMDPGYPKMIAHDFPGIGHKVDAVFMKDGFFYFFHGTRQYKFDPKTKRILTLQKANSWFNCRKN
# Method: as §1, §2
# The MMP-1 proenzyme was purified from the spent media of MMP-1-transfected HT-1080 cells provided by Dr. Harold Welgus of Washington University (St. Louis, Mo.). The protein was purified on a zinc chelating column.
# as §3, §4, §5, §6, §7
# Human recombinant MMP-2 = target: T4, Human recombinant MMP-2 (Homo sapiens, UniProt P08253)
# T4 construct: made in house; host or cells: MMP-2-transfected p2AHT2 cells
# T4 sequence (P08253 110-660): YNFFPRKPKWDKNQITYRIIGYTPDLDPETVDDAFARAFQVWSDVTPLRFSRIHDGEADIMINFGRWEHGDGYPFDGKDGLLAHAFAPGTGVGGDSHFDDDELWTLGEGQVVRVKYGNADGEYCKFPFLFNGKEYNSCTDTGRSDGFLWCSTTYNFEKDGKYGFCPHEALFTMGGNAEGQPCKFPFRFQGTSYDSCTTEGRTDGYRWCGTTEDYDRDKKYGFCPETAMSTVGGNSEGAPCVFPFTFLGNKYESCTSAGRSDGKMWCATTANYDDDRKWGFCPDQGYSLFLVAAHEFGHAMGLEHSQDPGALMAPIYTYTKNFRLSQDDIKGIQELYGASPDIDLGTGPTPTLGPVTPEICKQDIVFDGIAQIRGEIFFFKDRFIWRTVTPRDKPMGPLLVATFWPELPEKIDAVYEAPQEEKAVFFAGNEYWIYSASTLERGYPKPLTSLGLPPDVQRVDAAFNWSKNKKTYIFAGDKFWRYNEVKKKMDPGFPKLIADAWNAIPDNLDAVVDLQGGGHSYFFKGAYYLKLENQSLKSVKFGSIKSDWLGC
# Method: as §1, §2
# The MMP-2 proenzyme was purified by gelatin Sepharose chromatography from MMP-2-transfected p2AHT2 cells provided by Dr. Gregory Goldberg of Washington University (St. Louis, Mo.).
# as §3, §4, §5, §6, §7
SMILES,Ki (Human recombinant MMP-14) [nM],Ki (Human recombinant MMP-9) [nM],Ki (Human recombinant MMP-1) [nM],Ki (Human recombinant MMP-2) [nM]
O=C(NO)C1(S(=O)(=O)c2ccc(-c3ncc(CCC(F)(F)C(F)(F)F)cn3)cc2)CCOCC1 [Example 137],2870,1.15,> 10000,2.72
O=C(NO)C1(S(=O)(=O)c2ccc(-c3cnc(N4CCCC4)cn3)cc2)CCOCC1 [Example 138],1110,1.04,> 10000,0.218
O=C(NO)C1(S(=O)(=O)c2ccc(-c3cnc(CCC(F)(F)C(F)(F)F)nc3)cc2)CCOCC1 [Example 142],> 10000,76.6,> 10000,53.7
O=C(NO)C1(S(=O)(=O)c2ccc(-c3ccc(OCCCC(F)(F)F)cn3)cc2)CCOCC1 [Example 144],187,1.13,481,0.037
CN1CCC(C(=O)NO)(S(=O)(=O)c2ccc(-c3ccc(OC(F)(F)C(F)F)cc3)cc2)CC1 [Example 146],1050,0.48,1240,0.3
CCN1CCC(C(=O)NO)(S(=O)(=O)c2ccc(-c3noc(-c4ccncc4)n3)cc2)CC1 [Example 148],1020,39.3,> 10000,7.26
CCN1CCC(C(=O)NO)(S(=O)(=O)c2ccc(-c3noc(-c4ccc(C(F)(F)F)cc4)n3)cc2)CC1 [Example 149],117,5.18,> 10000,0.76
O=C(NO)C1(S(=O)(=O)c2ccc(-c3cnc(OCC(F)(F)C(F)(F)F)cn3)cc2)CCOCC1 [Example 154],493,0.34,1840,0.13
COCCN1CCC(C(=O)NO)(S(=O)(=O)c2ccc(-c3cnc(OCC(F)(F)C(F)(F)F)cn3)cc2)CC1 [Example 157],1220,0.42,9580,0.37
O=C(NO)C1(S(=O)(=O)c2ccc(-c3cnc(-c4cccs4)cn3)cc2)CCOCC1 [Example 160],> 10000,3.16,> 10000,2.01
O=C(NO)C1(S(=O)(=O)c2ccc(-c3ccc(CCC(F)(F)F)cc3)cc2)CCOCC1 [Example 161],303,0.21,3350,0.15
O=C(NO)C1(S(=O)(=O)c2ccc(-c3cnc(C4CCCC4)cn3)cc2)CCOCC1 [Example 162],7350,34,> 10000,3.11

# More lines, now with the values ahead:
Ki (Human recombinant MMP-14) [nM],Ki (Human recombinant MMP-9) [nM],Ki (Human recombinant MMP-1) [nM],Ki (Human recombinant MMP-2) [nM],SMILES
1010,9.95,> 10000,4.22,CCN1CCC(C(=O)NO)(S(=O)(=O)c2ccc(-c3ccc(Oc4ccccc4)cc3)cc2)CC1 [Example 135]
308,0.418,1070,0.074,CCN1CCC(C(=O)NO)(S(=O)(=O)c2ccc(-c3ccc(-c4ccncc4)cc3)cc2)CC1 [Example 136]
> 10000,6.23,> 10000,9,CCCCc1ccc(-c2ccc(S(=O)(=O)C3(C(=O)NO)CCN(CC)CC3)cc2)cn1 [Example 139]
604,0.127,> 10000,0.176,CCCCc1ccc(-c2ccc(S(=O)(=O)C3(C(=O)NO)CCN(CC)CC3)cc2)nc1 [Example 140]
79.4,0.198,257,0.041,O=C(NO)C1(S(=O)(=O)c2ccc(-c3ccc(-c4ccncc4)cc3)cc2)CCOCC1 [Example 141]
560,6.62,3390,0.72,O=C(NO)C1(S(=O)(=O)c2ccc(-c3ccc(-c4ccc(OC(F)(F)F)cc4)cn3)cc2)CCN(C2CC2)CC1 [Example 145]
139,7.09,> 10000,1.75,CCN1CCC(C(=O)NO)(S(=O)(=O)c2ccc(-c3noc(-c4ccc(F)cc4)n3)cc2)CC1 [Example 147]
307,0.47,1500,0.37,O=C(NO)C1(S(=O)(=O)c2ccc(-c3ccc(-c4ccccc4F)cn3)cc2)CCN(C2CC2)CC1 [Example 150]
120,0.09,391,0.15,O=C(NO)C1(S(=O)(=O)c2ccc(-c3ccc(-c4ccccc4)cn3)cc2)CCN(C2CC2)CC1 [Example 151]
144,0.09,842,0.1,COCCN1CCC(C(=O)NO)(S(=O)(=O)c2ccc(-c3ccc(-c4ccccc4)cc3)cc2)CC1 [Example 152]
205,0.18,1310,0.26,O=C(NO)C1(S(=O)(=O)c2ccc(-c3ccc(-c4ccccc4)cc3)cc2)CCN(C2CC2)CC1 [Example 153]
283,0.44,3860,0.66,CCN1CCC(C(=O)NO)(S(=O)(=O)c2ccc(-c3ccc(-c4csc(C)n4)cc3)cc2)CC1 [Example 155]
1140,0.48,7470,0.39,O=C(NO)C1(S(=O)(=O)c2ccc(-c3cnc(OCC(F)(F)C(F)(F)F)cn3)cc2)CCN(C2CC2)CC1 [Example 156]
599,0.38,3480,0.1,O=CN1CCC(C(=O)NO)(S(=O)(=O)c2ccc(-c3ccc(CCCC(F)(F)F)cn3)cc2)CC1 [Example 159]
